Assay results reported in PubChem BioAssay AID1919004 (Molecular Pharmacology Branch, DTP, NCI, 2023).
“And” between values parts separate entries of the source, which are not always exact repeats. Equal entries are not always repeated.

Test system: 883617-216-R-J1-PDC complex spheroids, growth, % test/control
Assay: Anticancer human tumor 883617-216-R-J1-PDC patient-derived bladder carcinoma cell line growth inhibition [AhR]
Conditions: for viability, T/C: stronger effect = lower value; active = viability on the fitted dose curve at most 10% of control; inactive = the rest
In short: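 Spheroids combined tumor cells with HUVEC endothelial cells and human MSCs as stroma. AhR antagonists were paired with standard or investigational drugs, each dosed in half-log steps down from near clinical Cmax, or from 10 microM where Cmax was unknown.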

[1] = curve of first compound, second compound 0.1 µM
[2] = curve of first compound, second compound 0.316 µM
[3] = curve of first compound, second compound 1 µM
[4] = curve of first compound, second compound 3.16 µM
[5] = curve of first compound, second compound 10 µM
[6] = second compound 0.1 µM, first compound 0.00949 µM
[7] = second compound 0.1 µM, first compound 0.03 µM
[8] = second compound 0.1 µM, first compound 0.0949 µM
[9] = second compound 0.1 µM, first compound 0.3 µM
[10] = second compound 0.316 µM, first compound 0.00949 µM
[11] = second compound 0.316 µM, first compound 0.03 µM
[12] = second compound 0.316 µM, first compound 0.0949 µM
[13] = second compound 0.316 µM, first compound 0.3 µM
[14] = second compound 1 µM, first compound 0.00949 µM
[15] = second compound 1 µM, first compound 0.03 µM
[16] = second compound 1 µM, first compound 0.0949 µM
[17] = second compound 1 µM, first compound 0.3 µM
[18] = second compound 3.16 µM, first compound 0.00949 µM
[19] = second compound 3.16 µM, first compound 0.03 µM
[20] = second compound 3.16 µM, first compound 0.0949 µM
[21] = second compound 3.16 µM, first compound 0.3 µM
[22] = second compound 10 µM, first compound 0.00949 µM
[23] = second compound 10 µM, first compound 0.03 µM
[24] = second compound 10 µM, first compound 0.0949 µM
[25] = second compound 10 µM, first compound 0.3 µM
[26] = second compound 0.1 µM, first compound 0.0316 µM
[27] = second compound 0.1 µM, first compound 0.1 µM
[28] = second compound 0.316 µM, first compound 0.0316 µM
[29] = second compound 0.316 µM, first compound 0.1 µM
[30] = second compound 1 µM, first compound 0.0316 µM
[31] = second compound 1 µM, first compound 0.1 µM
[32] = second compound 3.16 µM, first compound 0.0316 µM
[33] = second compound 3.16 µM, first compound 0.1 µM
[34] = second compound 10 µM, first compound 0.0316 µM
[35] = second compound 10 µM, first compound 0.1 µM
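Also: exposure lasted 7 days after dosing on day 3 of spheroid growth.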

CC(C)CC(NC(=O)C(Cc1ccccc1)NC(=O)c1cnccn1)B(O)O (configuration not stated) + Cc1cncc(-c2nc(NCCc3c[nH]c4ccccc34)c3ncn(C(C)C)c3n2)c1
3.48 nM: IC50 [5]
7.37 nM: IC50 [3]
9.01 nM: IC50 [1]
inactive: viability, T/C (second compound 0.1 µM, first compound 0.000949 µM) 90.2% | viability, T/C (second compound 0.1 µM, first compound 0.003 µM) 93.5% | viability, T/C [6] 48.1% | viability, T/C (second compound 0.316 µM, first compound 0.000949 µM) 97.4% | viability, T/C (second compound 0.316 µM, first compound 0.003 µM) 96.1% | viability, T/C [10] 44.8% | viability, T/C (second compound 1 µM, first compound 0.000949 µM) 111% | viability, T/C (second compound 1 µM, first compound 0.003 µM) 93.9% | viability, T/C [14] 38.7% | viability, T/C (second compound 3.16 µM, first compound 0.000949 µM) 105% | viability, T/C (second compound 3.16 µM, first compound 0.003 µM) 111% | viability, T/C [18] 23.6% | viability, T/C (second compound 10 µM, first compound 0.000949 µM) 61.7% | viability, T/C (second compound 10 µM, first compound 0.003 µM) 57.3%
8.45 nM: IC50 [2]
active: viability, T/C [7] 0.14% | viability, T/C [8] 0.1% | viability, T/C [9] 0.23% | viability, T/C [11] 0.11% | viability, T/C [12] 0.06% | viability, T/C [13] 0.21% | viability, T/C [15] 0.1% | viability, T/C [16] 0.05% | viability, T/C [17] 0.21% | viability, T/C [19] 0.14% | viability, T/C [20] 0.84% | viability, T/C [21] 0.2% | viability, T/C [22] 0.3% | viability, T/C [23] 0.24% | viability, T/C [24] 0.23% | viability, T/C [25] 0.62%
6.62 nM: IC50 [4]

Cn1ncnc1C1c2n[nH]c(=O)c3cc(F)cc(c23)NC1c1ccc(F)cc1 (configuration not stated) + Cc1cncc(-c2nc(NCCc3c[nH]c4ccccc34)c3ncn(C(C)C)c3n2)c1
inactive: viability, T/C (second compound 0.1 µM, first compound 0.000316 µM) 97.3% | viability, T/C (second compound 0.1 µM, first compound 0.001 µM) 97.5% | viability, T/C (second compound 0.1 µM, first compound 0.00316 µM) 82.8% | viability, T/C (second compound 0.1 µM, first compound 0.01 µM) 80.6% | viability, T/C [26] 78% | viability, T/C [27] 75.2% | viability, T/C (second compound 0.316 µM, first compound 0.000316 µM) 90.7% | viability, T/C (second compound 0.316 µM, first compound 0.001 µM) 97.4% | viability, T/C (second compound 0.316 µM, first compound 0.00316 µM) 90.1% | viability, T/C (second compound 0.316 µM, first compound 0.01 µM) 86.5% | viability, T/C [28] 90.1% | viability, T/C [29] 80.9% | viability, T/C (second compound 1 µM, first compound 0.000316 µM) 100% | viability, T/C (second compound 1 µM, first compound 0.001 µM) 101% | viability, T/C (second compound 1 µM, first compound 0.00316 µM) 97.2% | viability, T/C (second compound 1 µM, first compound 0.01 µM) 87.5% | viability, T/C [30] 82.7% | viability, T/C [31] 88.7% | viability, T/C (second compound 3.16 µM, first compound 0.000316 µM) 106% | viability, T/C (second compound 3.16 µM, first compound 0.001 µM) 106% | viability, T/C (second compound 3.16 µM, first compound 0.00316 µM) 102% | viability, T/C (second compound 3.16 µM, first compound 0.01 µM) 103% | viability, T/C [32] 98.2% | viability, T/C [33] 95.1% | viability, T/C (second compound 10 µM, first compound 0.000316 µM) 51% | viability, T/C (second compound 10 µM, first compound 0.001 µM) 56.3% | viability, T/C (second compound 10 µM, first compound 0.00316 µM) 56.5% | viability, T/C (second compound 10 µM, first compound 0.01 µM) 61.2% | viability, T/C [34] 56.3% | viability, T/C [35] 62.6%
> 100 nM: IC50 [1] | IC50 [2] | IC50 [3] | IC50 [4] | IC50 [5]

COc1cc(Nc2ncc3c(n2)-c2ccc(Cl)cc2C(c2c(F)cccc2OC)=NC3)ccc1C(=O)O + Cc1cncc(-c2nc(NCCc3c[nH]c4ccccc34)c3ncn(C(C)C)c3n2)c1
inactive: viability, T/C [26] 83.8% | viability, T/C [27] 86.9% | viability, T/C (second compound 0.1 µM, first compound 0.316 µM) 81.7% | viability, T/C (second compound 0.1 µM, first compound 1 µM) 72.5% | viability, T/C (second compound 0.1 µM, first compound 3.16 µM) 73.8% | viability, T/C (second compound 0.1 µM, first compound 10 µM) 61.5% | viability, T/C [28] 86.3% | viability, T/C [29] 83.1% | viability, T/C (second compound 0.316 µM, first compound 0.316 µM) 81.7% | viability, T/C (second compound 0.316 µM, first compound 1 µM) 72.2% | viability, T/C (second compound 0.316 µM, first compound 3.16 µM) 73.6% | viability, T/C (second compound 0.316 µM, first compound 10 µM) 65.5% | viability, T/C [30] 91.8% | viability, T/C [31] 88.6% | viability, T/C (second compound 1 µM, first compound 0.316 µM) 75.3% | viability, T/C (second compound 1 µM, first compound 1 µM) 82.8% | viability, T/C (second compound 1 µM, first compound 3.16 µM) 80% | viability, T/C (second compound 1 µM, first compound 10 µM) 70.8% | viability, T/C [32] 92.2% | viability, T/C [33] 98% | viability, T/C (second compound 3.16 µM, first compound 0.316 µM) 102% | viability, T/C (second compound 3.16 µM, first compound 1 µM) 81.8% | viability, T/C (second compound 3.16 µM, first compound 3.16 µM) 81.2% | viability, T/C (second compound 3.16 µM, first compound 10 µM) 72.7% | viability, T/C [34] 54.4% | viability, T/C [35] 55% | viability, T/C (second compound 10 µM, first compound 0.316 µM) 53.1% | viability, T/C (second compound 10 µM, first compound 1 µM) 51.4% | viability, T/C (second compound 10 µM, first compound 3.16 µM) 56.4% | viability, T/C (second compound 10 µM, first compound 10 µM) 71.2%
> 10000 nM: IC50 [1] | IC50 [2] | IC50 [3] | IC50 [4] | IC50 [5]

COc1ccc([C@@H](O)c2cc(-c3ncnc4cc(N5CCOCC5)ccc34)c(F)cc2Cl)nn1
inactive: viability, T/C (compound 0.0316 µM) 110% and 102% and 97.7% | viability, T/C (compound 0.1 µM) 110% and 106% and 123% | viability, T/C (compound 0.316 µM) 86.4% and 91.7% and 70% | viability, T/C (compound 1 µM) 69.8% and 77.5% and 73.8% | viability, T/C (compound 3.16 µM) 54.8% and 51.5% and 64.2% | viability, T/C (compound 10 µM) 36.5% and 39.1% and 48.6%
3720 nM and 3860 nM and > 10000 nM: IC50 (curve of compound)

CCN(c1cc(-c2ccc(CN3CCOCC3)cc2)cc(C(=O)NCc2c(C)cc(C)[nH]c2=O)c1C)C1CCOCC1 + Cc1ccccc1N=Nc1ccc(NC(=O)c2ccnn2C)c(C)c1
> 3000 nM: IC50 [1] | IC50 [2] | IC50 [3] | IC50 [4] | IC50 [5]
inactive: viability, T/C [6] 88.3% | viability, T/C [7] 100% | viability, T/C [8] 88.5% | viability, T/C [9] 91.7% | viability, T/C (second compound 0.1 µM, first compound 0.949 µM) 80.3% | viability, T/C (second compound 0.1 µM, first compound 3 µM) 84.3% | viability, T/C [10] 83.3% | viability, T/C [11] 91.5% | viability, T/C [12] 86.4% | viability, T/C [13] 85.3% | viability, T/C (second compound 0.316 µM, first compound 0.949 µM) 88.3% | viability, T/C (second compound 0.316 µM, first compound 3 µM) 86.1% | viability, T/C [14] 80.7% | viability, T/C [15] 82.2% | viability, T/C [16] 84% | viability, T/C [17] 78.3% | viability, T/C (second compound 1 µM, first compound 0.949 µM) 82.8% | viability, T/C (second compound 1 µM, first compound 3 µM) 96.4% | viability, T/C [18] 75.8% | viability, T/C [19] 84.5% | viability, T/C [20] 83.4% | viability, T/C [21] 85.5% | viability, T/C (second compound 3.16 µM, first compound 0.949 µM) 88.4% | viability, T/C (second compound 3.16 µM, first compound 3 µM) 79.2% | viability, T/C [22] 80% | viability, T/C [23] 86.1% | viability, T/C [24] 75.6% | viability, T/C [25] 75.2% | viability, T/C (second compound 10 µM, first compound 0.949 µM) 77.6% | viability, T/C (second compound 10 µM, first compound 3 µM) 81.4%
